Measured values taken from patent publication US20250057859A1, “CANNABICHROMENEQUINONE AND ANALOGUES THEREOF, AND METHOD OF USING COMPOSITIONS THEREOF AS ANTI-INFLAMMATORY AGENTS” (Juva Life, Inc., priority 2021, published 2025).

Experiments:
[1] = target: T1, cannabinoid receptor 1 (CNR1) (Homo sapiens, UniProt P21554); test: CB1 receptor agonist assay (cAMP Hunter eXpress, CNR1 CHO-K1); type: cell-based; details: Forskolin-stimulated CNR1 CHO-K1
T1 construct: host or cells: CHO-K1
Procedure: (§1) The assays were performed in cAMP Hunter eXpress cells engineered to overexpress naturally Gi/Go-coupled wildtype cannabinoid receptor 1 (CNR1) or cannabinoid receptor 2 (CNR2) in CHO-K1 cell type. In these cells, CB1 and/or CB2 agonists inhibit production of intracellular cAMP in response to stimulation with Forskolin. cAMP levels are determined using luminogenic detection reagents provided with the Hunter eXpress cAMP detection kit.
(§2) • Assay ready CNR1 CHO-K1 cells were obtained from Eurofins/Discover X, cat #95-0071E2 • Assay ready CNR2 CHO-K1 cells were obtained from Eurofins/Discover X, cat #95-0183E2 • Hunter eXpress cAMP detection kit was also from Discover X. The kit includes all cAMP detection reagents, Forskolin, complete cell plating medium and cell assay buffer.
(§3) The Assay-Ready CNR1 CHO-K1 or CNR2 CHO-K1 cells were thawed and re-suspended in pre-warmed Assay Complete plating medium and inoculated into 96well plate at a density of 30,000 cells in 100 μL. The plates with cells were incubated for 24 h at 37° C. in 5% CO2. […] The cells were stimulated with the Forskolin/compound buffer for 30 min. […] The plate was read on Biotek Synergy Neo2 reader in luminescent mode. […] Relative luminescence units (RLUs) were plotted against compound concentration to determine apparent EC50 values of the agonist compounds.

[2] = target: T2, cannabinoid receptor 2 (CNR2) (Homo sapiens, UniProt P34972); test: CB2 receptor agonist assay (cAMP Hunter eXpress, CNR2 CHO-K1); type: cell-based
T2 construct: host or cells: CHO-K1
Procedure: as §1, §2, §3

[3] = test system: SK-MEL-28 melanoma cell line; test: SK-MEL-28 cell line toxicity (Cell titer Glo viability); type: cell-based; details: Homo sapiens, SK-MEL-28, 72 h
Procedure: (§4) Culture medium were purchased from ATCC, USA.
(§5) 90 nL DMSO is added to control wells. […] Luminescence was then recorded using Synergy Neo2Multi-mode Reader.

[4] = as above; type: cell-based; details: human, SK-MEL-28 melanoma cells, 72 h
Procedure: as §4, §5

[5] = test system: PC3 prostate adenocarcinoma cell line; test: PC3 cell line toxicity (Cell titer Glo viability); type: cell-based; details: Homo sapiens, PC-3; PC3, 72 h
Procedure: as §5, §4

[6] = PC3 cell line toxicity (Cell titer Glo viability); type: cell-based; details: human, PC3 prostate adenocarcinoma cells, 72 h
Procedure: as §5, §4

[7] = in vitro; details: human
Procedure: The half maximal inhibition concentration (IC50) for each compound was determined by harvesting cells during the logarithmic growth period and then counting cell number using hemocytometer. […] Then, using a Biomek FX, test articles were serially diluted (10 mM top, 3× dilution intervals) along with a reference inhibitor (1 mM top, 3× dilution intervals) in acoustic grade Labcyte plate. Then, using an acoustic dispenser (Labcyte550), compounds were added as serially diluted to plate with cells: 90 nL of serially diluted compounds per well. 90 nL DMSO is added to control wells. Test plates were incubated for 72 h in the humidified incubator at 37° C. with 5% CO2. 25 μL of reconstituted Cell titer Glo reagent was added to each well. Each test plate was then incubated for 20 min at room temperature. Luminescence was then recorded using Synergy Neo2Multi-mode Reader.
In order to calculate intersect IC50, a dose-response curve was fitted using nonlinear regression model with a sigmoidal dose response.
The formula for calculating surviving rate is shown below, and the intersect IC50 was calculated according to the dose-response curve generated by the software:
The compounds of interest were assessed cell viability in the HL-60 acute promyelocytic leukemia cell line (ATCC® CCL-240). […] Culture medium were purchased from ATCC, USA.

T2 sequence (P34972 whole entry): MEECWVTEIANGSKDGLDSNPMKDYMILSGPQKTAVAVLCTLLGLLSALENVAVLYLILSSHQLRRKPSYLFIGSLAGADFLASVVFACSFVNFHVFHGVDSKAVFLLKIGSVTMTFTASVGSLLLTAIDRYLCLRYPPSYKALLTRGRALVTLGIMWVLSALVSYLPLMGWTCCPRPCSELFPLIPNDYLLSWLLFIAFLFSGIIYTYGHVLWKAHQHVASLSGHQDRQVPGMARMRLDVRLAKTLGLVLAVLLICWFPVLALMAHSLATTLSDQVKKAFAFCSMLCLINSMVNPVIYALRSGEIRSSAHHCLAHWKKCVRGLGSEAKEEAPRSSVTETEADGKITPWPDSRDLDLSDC
T1 sequence (P21554 whole entry): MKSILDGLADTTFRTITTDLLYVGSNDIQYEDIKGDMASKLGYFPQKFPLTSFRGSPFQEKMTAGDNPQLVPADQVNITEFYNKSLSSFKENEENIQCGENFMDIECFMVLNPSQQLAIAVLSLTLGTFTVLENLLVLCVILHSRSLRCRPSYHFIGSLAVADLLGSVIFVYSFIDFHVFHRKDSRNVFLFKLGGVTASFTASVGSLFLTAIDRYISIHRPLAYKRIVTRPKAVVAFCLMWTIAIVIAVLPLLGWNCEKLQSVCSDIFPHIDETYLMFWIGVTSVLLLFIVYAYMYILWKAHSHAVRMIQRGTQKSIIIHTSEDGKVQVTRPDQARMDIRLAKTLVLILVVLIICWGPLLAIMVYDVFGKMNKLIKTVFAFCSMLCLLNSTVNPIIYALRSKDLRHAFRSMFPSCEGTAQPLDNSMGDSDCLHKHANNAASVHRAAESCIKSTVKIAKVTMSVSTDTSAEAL

Which EC50 [1] does the source give for `CCCCCc1cc(O)c2c(c1)OC(C)(C)C1CCC(CO)=CC21` (centres unmarked) [11-hydroxy-THC] here?
Its EC50 is 1 nM.

And the EC50 ([2]; agonist, cAMP, Forskolin-stimulated CNR2 CHO-K1)?
Its EC50 is 51 nM.

What about the “Selectivity for CB2 over CB1” value ([2]; ratio of EC50 values) of the same compound?
Its value is 0.02 fold.

Which results are given for `CN[C@@H]1C[C@H]2O[C@@](C)([C@@H]1OC)n1c3ccccc3c3c4c(c5c6ccccc6n2c5c31)C(=O)NC4` [Staurosporine, staurosporine, reference compound]?
IC50 [3]: ~210 nM; viability at 72 h, 0.00017 µM ([4]; SK-MEL-28, 0.00017 uM): 96.2%; viability at 72 h, 0.00051 µM ([4]; SK-MEL-28, 0.00051 uM): 94.9%; viability at 72 h, 0.0015 µM ([4]; SK-MEL-28, 0.0015 uM): 96.7%; viability at 72 h, 0.0046 µM ([4]; SK-MEL-28, 0.0046 uM): 94.1%; viability at 72 h, 0.014 µM ([4]; SK-MEL-28, 0.014 uM): 92.9%; viability at 72 h, 0.041 µM ([4]; SK-MEL-28, 0.041 uM): 70%; viability at 72 h, 0.12 µM ([4]; SK-MEL-28, 0.12 uM): 53.9%; viability at 72 h, 0.37 µM ([4]; SK-MEL-28, 0.37 uM): 41.1%; viability at 72 h, 1.1 µM ([4]; SK-MEL-28, 1.1 uM): 33%; viability at 72 h, 3.3 µM ([4]; SK-MEL-28, 3.3 uM): 17.3%; viability at 72 h, 10 µM ([4]; SK-MEL-28, 10 uM): 8.55%; viability at 72 h, 30 µM ([4]; SK-MEL-28, 30 uM): 8.85%; IC50 [5]: ~4 nM; viability at 72 h, 0.00017 µM ([6]; PC3, 0.00017 uM): 102%; viability at 72 h, 0.00051 µM ([6]; PC3, 0.00051 uM): 92.2%; viability at 72 h, 0.0015 µM ([6]; PC3, 0.0015 uM): 67.1%; viability at 72 h, 0.0046 µM ([6]; PC3, 0.0046 uM): 43.2%; viability at 72 h, 0.014 µM ([6]; PC3, 0.014 uM): 34.5%; viability at 72 h, 0.041 µM ([6]; PC3, 0.041 uM): 12.7%; viability at 72 h, 0.12 µM ([6]; PC3, 0.12 uM): 10.3%; viability at 72 h, 0.37 µM ([6]; PC3, 0.37 uM): 9.5%; viability at 72 h, 1.1 µM ([6]; PC3, 1.1 uM): 8.4%; viability at 72 h, 3.3 µM ([6]; PC3, 3.3 uM): 8.1%; viability at 72 h, 10 µM ([6]; PC3, 10 uM): 6.8%; viability at 72 h, 30 µM ([6]; PC3, 30 uM): 7.1%; viability at 0.00017 µM [7]: 98.3%; viability at 0.00051 µM [7]: 96.5%; viability at 0.0015 µM [7]: 98.3%; viability at 0.0046 µM [7]: 90.4%; viability at 0.014 µM [7]: 66.6%; viability at 0.041 µM [7]: 36.3%; viability at 0.12 µM [7]: 27.7%; viability at 0.37 µM [7]: 18.7%; viability at 1.1 µM [7]: 13.9%; viability at 3.3 µM [7]: 11.7%; viability at 10 µM [7]: 10.4%; viability at 30 µM [7]: 9.6%
